Assay results as given in ChEMBL document CHEMBL1141658, “4-thiazolidinone--a biologically active scaffold” (Eur J Med Chem, 2008).
Converted amounts (≈) assume the structure as drawn.

Legend:
[1] = system: Human immunodeficiency virus 1; test: Antiviral activity against HIV1 3B in human MT4 cells; format: functional, organism-based; conditions: Human immunodeficiency virus 1, 3B
Rattus norvegicus = test: Antiinflammatory activity against carrageenan-induced edema in po dosed Albino rat; format: functional
Candida albicans = test: Antifungal activity against Candida albicans by serial double dilution method; format: functional
Cryptococcus neoformans = test: Antifungal activity against Cryptococcus neoformans by serial double dilution method; format: functional
Alternaria alternata = test: Inhibition of Alternaria tenuis spore germination; format: functional
Mus musculus = test: Potentiation of pentobarbital-induced hypnosis in mouse assessed as sleeping time at 100 mg/kg relative to control; format: functional
[2] = Selectivity index, ratio of inhibition of human MT4 cells to EC50 for HIV1 3B; format: toxicity, cell-based; conditions: read-out: Selectivity Index
[3] = target: T1, Follicle-stimulating hormone receptor (Homo sapiens, UniProt P23945); test: Agonist activity at human recombinant FSH receptor; format: functional
T1 sequence (P23945 whole entry): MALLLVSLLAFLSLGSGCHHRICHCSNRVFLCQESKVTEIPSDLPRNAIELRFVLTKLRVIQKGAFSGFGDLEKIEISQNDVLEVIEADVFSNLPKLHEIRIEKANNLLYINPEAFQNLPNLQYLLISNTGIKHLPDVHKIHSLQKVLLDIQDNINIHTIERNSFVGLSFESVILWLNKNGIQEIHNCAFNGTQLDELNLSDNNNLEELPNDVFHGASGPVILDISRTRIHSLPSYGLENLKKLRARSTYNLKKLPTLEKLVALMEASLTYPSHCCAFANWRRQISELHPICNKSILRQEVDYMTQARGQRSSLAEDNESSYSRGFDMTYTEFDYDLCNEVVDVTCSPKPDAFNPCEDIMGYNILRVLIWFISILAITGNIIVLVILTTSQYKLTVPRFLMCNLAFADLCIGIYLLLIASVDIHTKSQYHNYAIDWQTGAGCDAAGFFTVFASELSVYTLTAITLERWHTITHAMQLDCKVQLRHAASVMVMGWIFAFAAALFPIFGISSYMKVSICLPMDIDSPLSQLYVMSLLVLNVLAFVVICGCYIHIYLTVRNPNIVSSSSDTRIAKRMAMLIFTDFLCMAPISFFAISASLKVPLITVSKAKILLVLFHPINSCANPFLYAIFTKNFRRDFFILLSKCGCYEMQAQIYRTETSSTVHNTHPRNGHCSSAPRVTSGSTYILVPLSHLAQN

[4] = target: T2, Prostaglandin G/H synthase 2 (Mus musculus) (UniProt Q05769); test: Inhibition of COX2 in mouse J774 cells at 1 uM; format: cell-based
T2 sequence (whole entry): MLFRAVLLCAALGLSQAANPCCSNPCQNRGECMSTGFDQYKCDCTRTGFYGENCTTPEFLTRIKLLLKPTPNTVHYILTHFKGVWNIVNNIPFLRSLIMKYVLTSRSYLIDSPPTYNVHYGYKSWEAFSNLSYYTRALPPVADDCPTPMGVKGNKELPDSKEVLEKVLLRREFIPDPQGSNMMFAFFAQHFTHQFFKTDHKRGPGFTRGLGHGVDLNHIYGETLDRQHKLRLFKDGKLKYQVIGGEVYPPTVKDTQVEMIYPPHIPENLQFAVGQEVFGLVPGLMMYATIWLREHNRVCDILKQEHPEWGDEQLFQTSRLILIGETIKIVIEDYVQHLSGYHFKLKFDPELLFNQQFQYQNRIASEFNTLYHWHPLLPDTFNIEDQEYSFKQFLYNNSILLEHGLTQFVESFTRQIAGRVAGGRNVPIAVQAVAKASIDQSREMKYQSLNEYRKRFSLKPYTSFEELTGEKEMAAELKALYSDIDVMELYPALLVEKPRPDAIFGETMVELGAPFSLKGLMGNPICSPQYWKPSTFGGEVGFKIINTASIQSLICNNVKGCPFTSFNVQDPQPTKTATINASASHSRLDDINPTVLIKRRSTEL

[5] = target: T2, Prostaglandin G/H synthase 2 (Mus musculus); test: Inhibition of COX2 in mouse J774 cells at 10 uM; format: cell-based

With O=C1CSC(c2c(Cl)cccc2Cl)N1Cc1ccco1 (stereo not given) as the compound, how does the EC50 [1] read?
Its EC50 is 204 nM.

With CC1SC(c2ccccc2F)N(c2ccc(Br)cc2C(=O)O)C1=O (stereo not given) as the compound, how does the ED50 (Rattus norvegicus) read?
Its ED50 is 100 mg/kg.

Which results are given for CCCCCCCCCCCCN1C(=O)CSC12CCC(C(=O)C(N)Cc1ccccc1)CC2 (stereo not given)?
MIC (Candida albicans): 50 µg/mL (≈ 103 µM); MIC (Cryptococcus neoformans): 50 µg/mL (≈ 103 µM)

For O=C1CS/C(=N\c2ccccc2)N1c1ncccn1, which “inhibition (INH)” value (Alternaria alternata) is on record?
The value was 100%.

And the Time (Mus musculus)?
Its Time is 98.6 min.

What does the source list for O=C1CS/C(=N\c2ccccc2)N1CCCN1CCOCC1?
inhibition (INH) (Alternaria alternata): 100%; Time (Mus musculus): 98.6 min

For Cc1cccc(N2C(=O)CSC2c2c(Cl)cccc2Cl)n1 (stereo not given), which selectivity ratio [2] is on record?
The selectivity ratio was 6470.

Which EC50 [3] does the source give for COc1ccc(C2SC(CC(=O)NCCC3=CCc4ccccc43)C(=O)N2c2ccc(C(N)=O)c(Cl)c2)cc1 (stereo not given) here?
The EC50 was 5000 nM.

With CCCCC1C(=O)N(c2ccccc2)N(c2ccccc2)C1=O [PHENYLBUTAZONE] as the compound, how does the ED50 (Rattus norvegicus) read?
Its ED50 is 94.4 mg/kg.

With CCN1C(=O)C(C)S/C1=N\c1nc2cc(Cl)ccc2s1 (stereo not given) as the compound, how does the “inhibition (INH)” value (Alternaria alternata) read?
The value was 100%.

Which “inhibition (INH)” value (Alternaria alternata) does the source give for CCN1C(=O)C(C)S/C1=N\c1nc2c(Cl)cccc2s1 (stereo not given) here?
Its value is 100%.

With CCCN1C(=O)/C(=C2\C=CC(OC)=CC2)S/C1=N\c1ccccc1 as the compound, how does the inhibition [4] read?
The inhibition was 35%.

And the inhibition [5]?
The inhibition was 55%.
